Measurements: patent publication US11576915B2, “Method for treating pulmonary arterial hypertension and associated pulmonary arterial hypertension and daily dosing” (Altavant Sciences GmbH, priority 2019, dated 2023)

Legend:
[1] = Example 3 healthy subjects QD vs BID: KAR5417 plasma levels; format: in vivo, human
Experimental: (§1) 24 healthy subjects received 800 mg total daily oral doses of RVT-1201 or placebo (PBO), either as single (800 mg QD) or divided (400 mg BID) doses for 14 days across two cohorts (9 active: 3 PBO per cohort). KAR5417 plasma levels and change from Baseline (BSL) PD biomarker data (plasma and urine 5-HIAA) were compared between QD and BID cohorts at day 14. Safety and tolerability were assessed via adverse event (AE) monitoring and laboratory, vital signs and ECG assessments.

[2] = test system: serotonin biomarkers; test: divided dose pharmacodynamic studies in rats (QD vs BID vs TID); format: in vivo, rat
Experimental: (§2) TPH1 is the rate-limiting enzyme for peripheral biosynthesis of serotonin (5HT), which has been implicated as a causative factor in PAH. RVT-1201 decreased pulmonary vessel wall thickness in 2 PAH rodent models indicating potential to halt/reverse pulmonary remodeling in humans. The median effective dose (100 mg/kg QD) in PAH rat models yielded a ˜35% reduction in 5-HT biosynthesis (based on urinary 5-HIAA, a metabolite of 5HT). […] The example compares reductions in 5-HIAA levels following QD and BID dosing in healthy subjects.

[3] = Example 2 healthy human subjects: safety and tolerability; format: in vivo; settings: doses required to achieve clinically-relevant AUC
Experimental: (§3) Healthy human subjects (n=˜120) may receive RVT-1201.
(§4) Mean change in plasma 5-HIAA may be about −53% from Day 1 to Day 14, whereas placebo may be about +26%. Interpolation of KAR5417 AUC between 400 mg and 800 mg BID regimens may show 500-600 mg BID in humans will achieve the target exposure associated with efficacy in rat models.

[4] = test system: PAH; test: SUGEN-hypoxia treatment model for established PAH; format: in vivo; settings: rat, oral 100 mg/kg/day
[5] = Example 3 healthy subjects QD vs BID: safety and tolerability; format: in vivo, human
Experimental: as §1

[6] = test system: serotonin biosynthesis; test: rat serotonin biomarkers (serum serotonin, urinary 5-HIAA); format: in vivo; settings: 30 to 300 mg/kg/day, dose-dependent
Experimental: RVT-1201 (30 to 300 mg/kg/day) may yield a dose-dependent reduction in rat serum serotonin (−27% to −96%) and 24 h urinary output of 5-HIAA (−45% to −56%). HIAA is a metabolite that reflects total serotonin biosynthesis.

[7] = test system: PAH; test: PAH rodent models (Example 3 background); format: in vivo, rat
Experimental: as §2

[8] = test system: serotonin biosynthesis; test: Example 3 healthy subjects QD vs BID: plasma and urine 5-HIAA; format: in vivo, human; settings: day 14, change from baseline
Experimental: as §1

[9] = Example 2 healthy human subjects: pharmacokinetics; format: in vivo
Experimental: as §3, §4

[10] = test system: PAH; test: monocrotaline prevention model of PAH; format: in vivo; settings: rat, oral 100 mg/kg/day
[11] = test system: serotonin biosynthesis; test: Example 2 healthy human subjects: plasma 5-HIAA; format: in vivo; settings: 400 mg BID, Day 1 to Day 14
Experimental: as §4

[12] = polymorph stability and shelf life; format: physicochemical; settings: particularly at temperatures of less than 95° C.
Text: The above-referenced compound can be used to prevent or treat PAH/APAH in either an amorphous or crystalline form. Two different polymorph crystalline forms are identified by x-ray powder diffraction patterns set forth in FIG. 1 (Form 3) and FIG. 2 (Form 1) as well as Tables 1 and 2 (Form 3) and Tables 3 and 4 (Form 1).

Nc1nc(O[C@H](c2ccc(Cl)cc2-c2ccccc2)C(F)(F)F)cc(N2CCC3(CC2)CN[C@H](C(=O)O)C3)n1 [KAR5417, (S)-8-(2-amino-6-((R)-1-(5-chloro-[1,1′-biphenyl]-2-yl)-2,2,2-trifluoroeth-oxy)pyrimidin-4-yl)-2,8-diazaspiro[4.5]decane-3-carboxylic acid]
KAR5417 mean pAUC0-24 ([1]; RVT-1201 400 mg BID oral, day 14): 10400 ng*h/mL
AUC(0-t) ([1]; human, plasma, RVT-1201 800 mg QD oral, day 14, read-out: KAR5417 mean AUC0-24): 9180 ng·h/mL

CCOC(=O)[C@@H]1CC2(CCN(c3cc(O[C@H](c4ccc(Cl)cc4-c4ccccc4)C(F)(F)F)nc(N)n3)CC2)CN1 [RVT-1201, (S)-ethyl 8-(2-amino-6-((R)-1-(5-chloro-[1,1′-biphenyl]-2-yl)-2,2,2-trifluoroethoxy)pyrimidin-4-yl)-2,8-diazaspiro[4.5]decane-3-carboxylate]
QD dosing versus more frequent dosing, lowering of 5-HT ([2]; healthy rats, QD vs BID vs TID): as effective as more frequent dosing
once daily administration versus BID or TID regimens ([2]; rats, 75 mg/kg/day): comparable to BID or TID regimens
serotonin reduction ([2]; rats, 75 mg/kg/day, divided dose studies): ~65%
tolerability [3]: well tolerated
block or ameliorate PAH [4]: may block or ameliorate PAH
overall incidence of GI-related AEs ([5]; QD group (800 mg QD), 14 days): 78%
tolerability ([5]; both dose regimens (800 mg QD, 400 mg BID), 14 days): generally well-tolerated
overall incidence of GI-related AEs ([5]; divided dose group (400 mg BID), 14 days): 33%
treatment-related withdrawals ([5]; either cohort): no treatment-related withdrawals
reduction in 24 h urinary output of 5-HIAA [6]: −45% to −56%
reduction in rat serum serotonin [6]: −27% to −96%
pulmonary vessel wall thickness ([7]; 2 PAH rodent models): decreased
median effective dose ([7]; PAH rat models, QD): 100 mg/kg
reduction in 5-HT biosynthesis (based on urinary 5-HIAA) ([7]; PAH rat models, at median effective dose 100 mg/kg QD): ~35%
mean (±SD) reduction in plasma 5-HIAA ([8]; 400 mg BID): 49.9 (9.52) %
mean (±SD) reduction in urinary 5-HIAA ([8]; 400 mg BID): 55.5 (10.3) %
mean (±SD) reduction in plasma 5-HIAA ([8]; 800 mg QD): 40.0 (6.32) %
mean (±SD) reduction in urinary 5-HIAA ([8]; 800 mg QD): 45.8 (6.59) %
human dose achieving target exposure associated with efficacy in rat models ([9]; BID, interpolation of KAR5417 AUC between 400 mg and 800 mg BID regimens): 500 to 600 mg
AUC following single doses versus dose ([9]; healthy human subjects, standard meals, single doses 200 to −1200 mg): proportional to dose
block or ameliorate PAH [10]: may block or ameliorate PAH
mean change in plasma 5-HIAA [11]: about −53%

CCOC(=O)[C@@H]1CC2(CCN(c3cc(O[C@H](c4ccc(Cl)cc4-c4ccccc4)C(F)(F)F)nc(N)n3)CC2)CN1 [crystalline Form 3, (S)-ethyl 8-(2-amino-6-((R)-1-(5-chloro-[1,1′-biphenyl]-2-yl)-2,2,2-trifluoroethoxy)pyrimidin-4-yl)-2,8-diazaspiro[4.5]decane-3-carboxylate]
stability and shelf life compared to crystalline Form 1 [12]: substantially greater stability and shelf life
